Inconclusive results are not listed. Active and inactive are the calls of the source.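 Rule for the calls: active = EC50 no greater than ten times the top concentration tested; inconclusive = flat fit with inhibition between 30% and 70%, or an invalid poor-quality fit; inactive = EC50 beyond ten times the top concentration.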
Tested on: S. cerevisiae GRE-lacZ reporter, Hsp90 function, luminescence
Experiment: loss of Hsp90-dependent reporter luminescence – S. cerevisiae, mechanism study for C. albicans Hsp90 inhibitor project, SAR follow-up (AID 434938)

EC50 | SMILES
9.91 µM | Cc1ccc(Nc2nc(N)c([N+](=O)[O-])c(N3CCC(C)CC3)n2)cc1C
> 26 µM (inactive) | Cc1ccc(C(=O)Nc2cccc(-c3cn4ccccc4n3)c2)cc1
> 26 µM (inactive) | O=C(Nc1nnc(CCc2ccccc2)s1)c1ccco1
2.16 µM | O=C(Nc1nnc(-c2ccc3c(c2)CCCC3)o1)c1ccc(Cl)cc1Cl
> 26 µM (inactive) | CCCC(=O)NC(c1ccccc1)c1ccc2cccnc2c1O (centres undefined)
> 26 µM (inactive) | CC(C)COCc1ccc(O)c2ncccc12
12 µM | O=C(Oc1c(Cl)cc(Cl)c2cccnc12)c1cccs1
> 26 µM (inactive) | COc1ccc(-c2nnc(NC(=O)c3ccc(F)cc3)o2)cc1
8.89 µM | Cc1oc2c(F)c(F)c(F)c(F)c2c1S(=O)(=O)Nc1cccc(C(F)(F)F)c1
7.66 µM | Cc1ccc(C(=O)c2coc3c2C(=O)C(=O)c2ccccc2-3)cc1
> 26 µM (inactive) | O=C(Nc1nnc(SCc2ccc(Cl)cc2)s1)c1ccc2ccccc2n1
16.5 µM | CCOC(=O)c1c(-c2ccccc2Cl)cn2ccccc12
15.1 µM | O=C(Nc1sc2c(c1C(=O)c1ccc(Cl)cc1)CCCC2)c1cccnc1
2.91 µM | CCc1ccc2c(c1)/C(=C/C(=O)c1cccs1)C(=O)N2
10.2 µM | O=c1c2cc(Br)ccc2nc(-c2cccc(C(F)(F)F)c2)n1O
4.74 µM | O=C(Nc1nc(-c2ccccn2)cs1)c1ccc(Br)s1
26.7 µM | Clc1ccc2c(c1)C(c1cccs1)=NNC(c1cccnc1)=N2
> 26 µM (inactive) | COc1ccc(-n2nc(C(=O)NCC(=O)N3CCN(c4ccccc4)CC3)c3ccccc3c2=O)c(OC)c1
8.43 µM | Cc1ccc(/C=C/C(=O)c2ccccc(=O)c2O)cc1C
